Here are results for four molecules from patent US4419355A, “Condensed as-triazine derivatives and method of using the same” (Egyt Gyogyszervegyeszeti Gyar, priority 1980, dated 1983).

Each structure is given as a SMILES string.

Data set [1] has as its system tetrabenazine ptosis. In words: Tetrabenazine antagonism on mice. The settings on record: for ED50: Mus musculus, po; for Therapeutic index LD50/ED50: p.o., mice, tetrabenazine antagonism.
Experimental: Groups of animals consisting of 10-20 mice each were examined. A 0.9% sodium chloride solution was administered to the mice of the control group in a dosage of 20 ml/kg. After 30 minutes 50 mg/kg of tetrabenazine were administered. The animals with closed interpalpebral zone were counted 30, 60, 90 and 120 minutes after the administration of the tetrabenazine. The data were summarized and the inhibition in comparison with the control was determined.
Data set [2] concerns tetrabenazine ptosis. Briefly: Tetrabenazine ptosis antagonism on rats. In kind it is in vivo. The conditions noted are these: for ED50: Rattus norvegicus, read-out: Tetrabenazine ptosis ant. ED50; for Therapeutic index: tetrabenazine ptosis ant. As to the method: (§1) The experiments were carried out on the analogy of the tests described at point (a).
For data set [3], the system named is Reserpine-ethanol narcose. In words: Reserpine-ethanol narcose antagonism on rats. It counts as in vivo. The conditions noted are these: for ED50: Rattus norvegicus, read-out: Reserpine-ethanol narcose ant. ED50; for Ther. index: reserpine-ethanol narcose ant. The protocol:
as §1

Data set [4] can be described thus: Acute toxicity on mice (oral). The conditions noted are these: mouse, in vivo, p.o., CFLP mice, 20 ml/kg, 4 days observation. The protocol:
The acute toxicity of the new compounds according to the invention was determined on white mice of both sexes weighing 18-24 g belonging to the strain CFLP. Administration was effected with an oral dosage of 20 ml/kg. After treatment the animals were kept under observation for 4 days.

Data set [5] is described as follows: Acute toxicity on rats (oral). The settings on record: rat, in vivo, p.o., Wistar rats, 0.5% suspension with carboxymethylcellulose. The protocol:
The acute toxicity was investigated also on Wistar rats. A 0.5% suspension prepared from the test compound and carboxymethylcellulose was administered orally to the animals.

The next data set deals with yohimbine toxicity. Briefly: Potentiation of yohimbine toxicity on mice. It counts as in vivo. The conditions noted are these: for ED50: Mus musculus, po; for Therapeutic index LD50/ED50: p.o., mice, yohimbine potentiation. The protocol: The experiments were carried out by the method of Quinton et al. The test compound was administered orally in a volume of 20 ml/kg half an hour before the administration of the standard yohimbine dose.

In the case of `CN(C)CCC=C1c2ccccc2CCc2ccccc21` [Amitriptylin, reference compound], in the data set on tetrabenazine ptosis [1], the 50% effect level (ED50) was put at a dose of 12 mg/kg and the “Therapeutic index LD50/ED50” value stood at 18.75. In addition, in the data set on tetrabenazine ptosis [2], the 50% effective dose (ED50) was found to be 11.5 mg/kg and the Therapeutic index is reported as 46.1. Besides, in data set [3], the median effective dose (ED50) was determined as 40 mg/kg and the Ther. index is recorded as 13.25. Moreover, the LD50 at 96 h in data set [4] came out at 225 mg/kg. Further, the median lethal dose (LD50) in data set [5] came out at 530 mg/kg.

As to `c1ccc(-c2ncn[n+]3ccccc23)cc1` [Compound A, 1-phenyl-pyrido[2,1-f]-as-triazinium bromide], in the data set on tetrabenazine ptosis [1], the 50% effect level (ED50) was put at a dose of 30 mg/kg and the “Therapeutic index LD50/ED50” value is 46.7. The molecule further registered an LD50 at 96 h in data set [4] of 1400 mg/kg. In addition, in the data set on yohimbine toxicity, the ED50 amounted to 66 mg/kg and the “Therapeutic index LD50/ED50” value was determined as 21.2.

In the case of `Clc1ccc(-c2ncn[n+]3ccccc23)cc1` [Compound B, 1-(4-chlorophenyl)-pyrido[2,1-f]-as-triazinium bromide], the ED50 stood at 14 mg/kg in the data set on tetrabenazine ptosis [1] and 50 mg/kg with yohimbine toxicity. In addition, the “Therapeutic index LD50/ED50” value in the data set on tetrabenazine ptosis [1] amounted to 64.2; in the data set on yohimbine toxicity it was 18.0. Further, the LD50 at 96 h in data set [4] was determined as 900 mg/kg.

Consider `Clc1ccc(-c2ncn[n+]3ccc4ccccc4c23)cc1` [Compound C, 1-(4-chlorophenyl)-as-triazino[6,1-a]-isoquinolinium bromide], for which, in the data set on tetrabenazine ptosis [1], the 50% effect level (ED50) was put at a dose of 3.2 mg/kg and the “Therapeutic index LD50/ED50” value is 187.5. Further, in the data set with tetrabenazine ptosis [2], the ED50 amounted to 5.6 mg/kg and the Therapeutic index was 178.6. In data set [3], the ED50 stood at 40 mg/kg and the Ther. index turned out to be 25.0. For the same molecule, the LD50 at 96 h in data set [4] worked out at 600 mg/kg. This molecule also registered an LD50 in data set [5] of 1000 mg/kg. In the data set with yohimbine toxicity, the ED50 amounted to 3.5 mg/kg and the “Therapeutic index LD50/ED50” value is listed as 171.4.

As a reminder, the ED50 is the midpoint of the dose-response relation. One may read the LD50 as the dose at which mortality reaches 50%. Read a low LD50 as greater toxicity.
